This is an account of results in patent publication US7863453B2, “Tartrate salt of isofagomine and methods of use” (Amicus Therapeutics, Inc., priority 2006, dated 2011).

The term Tmax denotes the time from dosing to the highest level. In general, half-life refers to how long it takes for the measured level to halve.

Several values for one entry are separate records, joined by “and”; a condition that tells them apart may be missing. Equal entries are not always repeated. Structures can show the parent of a compound that is named as a salt. Where two headings read alike, the source gives them in different places.

A short description of data set [1]: Phase I multiple ascending dose study, pharmacokinetics. It counts as in vivo, human. To be noted: after 7 days of oral administration. Here is the method:
(§1) Isofagomine tartrate is a pharmacological chaperone in development for the treatment of the lysosomal storage disorder Gaucher disease. Using cell-based and animal models we have shown that isofagomine increases cellular levels of glucocerebrosidase (GCase), the enzyme deficient in Gaucher disease. Randomized double-blind Phase I clinical studies were performed in 72 healthy volunteers, (39 male, 33 female). Isofagomine tartrate was orally administered as an aqueous solution. In a first-in-human single ascending dose study, doses of 8, 25, 75, 150 (two cohorts), and 300 mg were administered (6 active, 2 placebo in each cohort). In a multiple ascending dose study, doses of 25, 75, and 225 mg were administered daily for seven days (6 active, 2 placebo in each cohort).
(§2) Mean plasma levels peaked at 3.4 hr. […] (SEM: 2 hr.).

The nature of data set [2]: Moisture uptake studies (saturated salt solutions). To be noted: for Weight gain (%): single samples; for Average weight gain (%): average of 3 samples. The class given is physicochemical. An excerpt: The moisture uptake test results of six different isofagomine tartrate samples prepared according to present invention are summarized in Tables 4 and 5.
Data set [3] can be described thus: Phase I single ascending dose study, pharmacokinetics. It counts as in vivo, human. The method, then:
as §1, §2

In data set [4] the test system is mutant GCase. Kind of data set: Ex vivo response study, GCase levels in macrophages derived from Gaucher patients. It counts as cell-based, human. Here is the method:
The intracellular enhancement activity of isofagomine L-(+)-tartrate was investigated with fibroblasts established from Gaucher patients. To evaluate the effects of IFG on mutant GCase levels, an ex vivo response study with macrophages and EBV-transformed lymphoblasts derived from peripheral leukocytes of 40 patients was conducted.
The study included 21 males with type I Gaucher disease, 1 person with type III Gaucher disease, and 18 females with type I Gaucher disease. Patients ranged in age from 7 to 83 years, and 38 of 40 patients were on enzyme replacement therapy (ERT).

A short description of data set [5]: Powder characteristics (density, flowability). It counts as physicochemical. An excerpt: Meanwhile, isofagomine tartrate according to the present invention has good powder characteristics, e.g., crystal size, density, and flowability, that are suitable for a pharmaceutical manufacturing process. Tables 2 and 3 summarize powder characteristics of an isofagomine tartrate sample prepared according to the present invention. […] Most batches provided more than 98%, or at minimum 90%, of isofagomine tartrate with a particle size of about 1200 μm or less.

Data set [6] in a line: Phase I clinical studies in healthy volunteers, safety. The class given is in vivo, human. Here is the method: as §1
Data set [7] deals with T1, GCase (Homo sapiens, UniProt P04062).
T1 construct: endogenous in cells; host or cells: isolated white blood cells of healthy volunteers dosed orally
T1 sequence (P04062 40-536): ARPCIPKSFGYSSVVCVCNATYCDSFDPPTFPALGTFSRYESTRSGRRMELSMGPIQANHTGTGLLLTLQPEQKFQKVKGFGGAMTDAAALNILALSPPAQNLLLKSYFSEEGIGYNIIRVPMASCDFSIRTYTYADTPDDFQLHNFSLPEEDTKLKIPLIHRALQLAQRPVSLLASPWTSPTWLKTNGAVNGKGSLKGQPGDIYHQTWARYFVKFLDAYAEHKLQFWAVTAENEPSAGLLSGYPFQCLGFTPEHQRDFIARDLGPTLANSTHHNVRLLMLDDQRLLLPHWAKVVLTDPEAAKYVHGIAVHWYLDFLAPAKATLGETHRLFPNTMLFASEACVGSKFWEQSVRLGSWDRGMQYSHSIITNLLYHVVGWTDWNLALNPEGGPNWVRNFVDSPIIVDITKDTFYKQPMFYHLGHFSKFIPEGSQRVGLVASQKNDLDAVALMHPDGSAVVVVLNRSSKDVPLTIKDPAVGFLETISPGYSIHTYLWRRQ
Kind of data set: Phase I multiple-dose study, GCase activity in isolated white blood cells. It counts as in vivo. Here is the method:
as §1
In the multiple-dose study, GCase activity in isolated white blood cells was measured at days 1, 3, 5 and 7 during administration of isofagomine tartrate, and at days 9, 14 and 21 during the post-treatment washout period. […] The increase in enzyme level was dose-related, reaching approximately 3.5-fold above baseline levels.

Data set [8] has as its target T2, recombinant human acid β-glucosidase (GCase) (Homo sapiens, UniProt P04062).
T2 sequence (P04062 40-536): T1 sequence (P04062 40-536)
The conditions noted are these: background statement; cited from earlier work.

For data set [9] the following is noted: animals, background statement; cited from earlier work.

Take `OC[C@H]1CNC[C@@H](O)[C@@H]1O` [isofagomine tartrate, Isofagomine tartrate]: the “pharmacokinetic behavior versus dose” value in data set [1] is “linear with dose”. Moreover, the hygroscopicity entry in [2] is “not hygroscopic”. The “Weight gain (%)” value is 0.06% and 0.00% and 0.05% in data set [2] (NaBr saturated solution, 24 hours, RH 59%, 20.5 °C); 0.04% and 0.02% and 0.10% in data set [2] (NaBr saturated solution, 48 hours, RH 59%, 20.8 °C); 0.06% and 0.07% and 0.10% in data set [2] (NaBr saturated solution, 8 days, RH 59%, 20.2 °C); 0.02% and 0.00% and 0.08% in [2] (NaCl saturated solution, 24 hours, RH 72%, 20.5 °C); 0.05% and 0.00% and 0.8% in data set [2] (NaCl saturated solution, 48 hours, RH 71%, 20.8 °C); 0.10% and 0.00% and 0.15% in [2] (NaCl saturated solution, 8 days, RH 72%, 20.2 °C). The “Average weight gain (%)” value in [2] (NaBr saturated solution, 24 hours, RH 59%) turned out to be 0.04%; in data set [2] (NaBr saturated solution, 48 hours, RH 59%) it was 0.05%; in data set [2] (NaBr saturated solution, 8 days, RH 59%), 0.08%; in [2] (NaCl saturated solution, 24 hours, RH 72%), 0.04%; in data set [2] (NaCl saturated solution, 48 hours, RH 71%) it was 0.05%; in [2] (NaCl saturated solution, 8 days, RH 72%), 0.08%. Moreover, the moisture uptake result in [2] (after exposure to 75% RH for 8 days) is “about 0.08%”. The Tmax in data set [3] (both sexes, human, plasma, single-dose study, oral, SEM 0.6 hr, read-out: time at which mean plasma levels peaked (Tmax)) was determined as 3.4 h. Also, the half-life in [3] (both sexes, human, plasma, single-dose study, oral, SEM 2 hr, read-out: plasma elimination half-life (converted)) was 840 min. Also, the “systemic exposure via the oral route” value in data set [3] (healthy volunteers) is reported as “good systemic exposure”. Moreover, in data set [3] (single-dose study, 8-300 mg), the “plasma AUC and Cmax versus dose” value is on record as “linearly correlated with administered dose”. In addition, the “increase in GCase levels (average)” value in [4] (macrophages from Gaucher patients, 32 of 34 responding, treated 5 days, dose-dependent) is 2.8 fold. Moreover, the “Bulk Density” value in [5] is 0.44 g/mL; in data set [5] (listed as Isofagomine tartrate), “around 0.44 g/ml”. For the same compound, the “Carr Index” value in data set [5] and in [5] (listed as Isofagomine tartrate) was 15% each time. The “Tap Density” value in [5] came to 0.52 g/mL. In data set [6] (both studies), the serious adverse events entry is on record as “No serious adverse events occurred”. The treatment-emergent adverse events entry in [6] (both studies) was “mostly mild”. In addition, in data set [6] (healthy volunteers, oral aqueous solution, single 8-300 mg and 25-225 mg daily for seven days), the tolerability entry is listed as “generally well tolerated at all doses”. The “increase in GCase level above baseline” value in [7] (isolated white blood cells, healthy volunteers, 25-225 mg daily for seven days, dose-related, maximum reached) is “approximately 3.5 fold”. For the same compound, in [7] (post-treatment washout period), the “GCase levels after removal of the drug” value is on record as “return to near baseline levels by day 21”.
For the compound `OC[C@H]1CNC[C@@H](O)[C@@H]1O` [isofagomine, (3R,4R,5R)-5-(hydroxymethyl)-3,4-piperidinediol], the accumulation result in [1] is given as “no unexpected accumulation”. For the same compound, the “inhibition of GCase” value in data set [8] was “potent inhibitor”. Moreover, the “effect on GCase levels in cells from patients with different genotypes” value in data set [4] (N370S/N370S, N370S/L444P, N370S/84insG, N370S/R163X, N370S/Y212H, L444P/del 136T, L444P/F216Y, L444P/L174F, G202R/R463C, K79N/complex B exon 9/10) is “significantly increased GCase levels”. In addition, the “concentration at maximum enhancement of GCase” value in [4] (macrophages) is given as “about 30 μM”. Further, in data set [9], the blood-brain barrier crossing result is recorded as “cross the blood-brain barrier”.
